From patent US4515942A, “Antibiotics KA-6606 XII, XIII, XV, XVI and XVII” (Kowa Company, Ltd., priority 1980, dated 1985)

Columns and labels:
Proteus vulgaris OX-107 = experiment: disc plate method (Table 2); type: cell-based; details: paper disc 8 mm; for zone of inhibition at 1000 µg/mL / zone of inhibition at 10000 µg/mL: Proteus vulgaris, read-out: Inhibition zone (diameter); for zone of inhibition at 1000 µg/mL: OX107, 1 mg/ml; for Inhibition zone (diameter): 1 mg/ml; for zone of inhibition at 10000 µg/mL: OX107, 10 mg/ml
Description: (§1) Tables 1 and 2 show the antibacterial spectra of the antibiotics KA-6606 VII to KA-6606 XVII against various bacteria, determined by the disc plate method, in comparison with the KA-6606 II substance. Each of the chemicals is used as impregnated in a paper disc having a diameter of 8 mm.

[1] = system: Pseudomonas aeruginosa NCTC 10490; experiment: disc plate method (Table 2); type: cell-based; details: paper disc 8 mm; for zone of inhibition at 1000 µg/mL / zone of inhibition at 10000 µg/mL: Pseudomonas aeruginosa, read-out: Inhibition zone (diameter); for zone of inhibition at 1000 µg/mL: NCTC10490, 1 mg/ml; for Inhibition zone (diameter): 1 mg/ml; for zone of inhibition at 10000 µg/mL: NCTC10490, 10 mg/ml
Description: as §1

Proteus inconstans [2] = experiment: disc plate method (Table 2); type: cell-based; details: 1 mg/ml, paper disc 8 mm, Proteus inconstans (Table 2); for zone of inhibition at 1000 µg/mL: Providencia alcalifaciens, read-out: Inhibition zone (diameter)
Description: as §1

[3] = system: Staphylococcus aureus 209D-JC-1; experiment: disc plate method (Table 2); type: cell-based; details: paper disc 8 mm; for zone of inhibition at 1000 µg/mL / zone of inhibition at 10000 µg/mL: Staphylococcus aureus, read-out: Inhibition zone (diameter); for zone of inhibition at 1000 µg/mL: 209DJC1, 1 mg/ml; for Inhibition zone (diameter): 1 mg/ml; for zone of inhibition at 10000 µg/mL: 209DJC1, 10 mg/ml
Description: as §1

Serratia marcescens NHL = experiment: disc plate method (Table 2); type: cell-based; details: paper disc 8 mm; for zone of inhibition at 1000 µg/mL / zone of inhibition at 10000 µg/mL: Serratia marcescens, read-out: Inhibition zone (diameter); for zone of inhibition at 1000 µg/mL / Inhibition zone (diameter): 1 mg/ml; for zone of inhibition at 10000 µg/mL: 10 mg/ml
Description: as §1

[4] = system: Escherichia coli NIHJ JC-2; experiment: disc plate method (Table 2); type: cell-based; details: paper disc 8 mm; for zone of inhibition at 1000 µg/mL / zone of inhibition at 10000 µg/mL: Escherichia coli, read-out: Inhibition zone (diameter); for zone of inhibition at 1000 µg/mL: NIHJJC2, 1 mg/ml; for Inhibition zone (diameter): 1 mg/ml; for zone of inhibition at 10000 µg/mL: NIHJJC2, 10 mg/ml
Description: as §1

[5] = system: Bacillus subtilis ATCC 6633; experiment: disc plate method (Table 2); type: cell-based; details: paper disc 8 mm; for zone of inhibition at 1000 µg/mL / zone of inhibition at 10000 µg/mL: Bacillus subtilis, read-out: Inhibition zone (diameter); for zone of inhibition at 1000 µg/mL: ATCC6633, 1 mg/ml; for zone of inhibition at 1000 µg/mL / Inhibition zone (diameter): Bacillus subtilis ATCC 6633 (Table 2); for Inhibition zone (diameter): 1 mg/ml; for zone of inhibition at 10000 µg/mL: ATCC6633, 10 mg/ml, Bacillus subtilis ATCC 6633
Description: as §1

[6] = system: Klebsiella pneumoniae PCI 602; experiment: disc plate method (Table 2); type: cell-based; details: paper disc 8 mm; for zone of inhibition at 1000 µg/mL: Klebsiella pneumoniae, PCI602, 1 mg/ml, read-out: Inhibition zone (diameter); for Inhibition zone (diameter): 1 mg/ml
Description: as §1

Solubility in solvents = type: physicochemical
Stability = type: physicochemical; details: pH range in which stable
Escherichia coli NIHJ = experiment: disc plate method (Table 1); type: cell-based; details: Escherichia coli, 1 mg/ml, paper disc 8 mm, read-out: Inhibition zone (diameter)
Description: as §1

Proteus inconstans [7] = experiment: disc plate method (Table 1); type: cell-based; details: 1 mg/ml; paper disc 8 mm; Proteus inconstans (Table 1)
Description: as §1

[8] = system: Bacillus subtilis ATCC 6633; experiment: disc plate method (Table 1); type: cell-based; details: Bacillus subtilis, ATCC6633, 1 mg/ml; paper disc 8 mm; Bacillus subtilis ATCC 6633 (Table 1); read-out: Inhibition zone (diameter)
Description: as §1

[9] = system: Staphylococcus aureus 209P; experiment: disc plate method (Table 1); type: cell-based; details: Staphylococcus aureus, 209P, 1 mg/ml, paper disc 8 mm, read-out: Inhibition zone (diameter)
Description: as §1

Klebsiella pneumoniae = experiment: disc plate method (Table 1); type: cell-based; details: 1 mg/ml, paper disc 8 mm
Description: as §1

Proteus vulgaria = experiment: disc plate method (Table 1); type: cell-based; details: 1 mg/ml, paper disc 8 mm, read-out: Inhibition zone (diameter)
Description: as §1

Serratia marcescens = experiment: disc plate method (Table 1); type: cell-based; details: 1 mg/ml, paper disc 8 mm, read-out: Inhibition zone (diameter)
Description: as §1

Row | SMILES | zone of inhibition at 1000 µg/mL (Proteus vulgaris OX-107) | zone of inhibition at 1000 µg/mL [1] | zone of inhibition at 1000 µg/mL (Proteus inconstans [2]) | zone of inhibition at 1000 µg/mL [3] | zone of inhibition at 1000 µg/mL (Serratia marcescens NHL) | zone of inhibition at 1000 µg/mL [4] | zone of inhibition at 1000 µg/mL [5] | zone of inhibition at 1000 µg/mL [6] | Solubility in solvents: chloroform (Solubility in solvents) | Solubility in solvents: ethyl acetate (Solubility in solvents) | Solubility in solvents: methanol (Solubility in solvents) | Solubility in solvents: water (Solubility in solvents) | Stability (stable at pH) (Stability) | Inhibition zone (diameter) (Proteus inconstans [2]) | also measured
1 | CNC1C(OC)CC(N)C(OC2OC(C(C)N)CCC2NC(N)=O)C1O (stereo not shown) [KA-6606 XVI] | 15.8 mm | 11.8 mm | 8.9 mm | 16.3 mm | 16.3 mm | 16.2 mm | 20.6 mm | 8.5 mm | Insoluble | Insoluble | Easily soluble | Easily soluble | 2-10 pH |  | 
2 | CNC1C(OC)CC(N)C(OC2OC(CN)CCC2N)C1O (stereo not shown) [KA-6606 XIV] | 12 mm | 9.2 mm | 8.5 mm | 17.1 mm | 13.5 mm | 11.8 mm | 19.1 mm | 9.5 mm | Insoluble | Insoluble | Easily soluble | Easily soluble | 2-10 pH |  | 
3 | CNC1C(O)CC(N)C(OC2OC(C(C)N)CCC2N)C1O (stereo not shown) [KA-6606 XI] |  |  |  |  |  |  |  |  | Insoluble | Insoluble | Easily soluble | Easily soluble | 2-10 pH | 19.0 mm | Inhibition zone (diameter) (Proteus vulgaris OX-107): 15.1 mm; Inhibition zone (diameter) [1]: 16.6 mm; Inhibition zone (diameter) [3]: 25.2 mm; Inhibition zone (diameter) (Serratia marcescens NHL): 16.8 mm; Inhibition zone (diameter) [4]: 18.0 mm; Inhibition zone (diameter) [5]: 23.5 mm; Inhibition zone (diameter) [6]: 18.5 mm
4 | CNC1C(O)CC(N)C(OC2OC(C(C)N)CCC2N)C1O (stereo not shown) [KA-6606 X] |  |  |  |  |  |  |  |  | Insoluble | Insoluble | Easily soluble | Easily soluble | 2-10 pH | 11.9 mm | Inhibition zone (diameter) (Proteus vulgaris OX-107): 16.6 mm; Inhibition zone (diameter) [1]: 13.8 mm; Inhibition zone (diameter) [3]: 23.3 mm; Inhibition zone (diameter) (Serratia marcescens NHL): 16.5 mm; Inhibition zone (diameter) [4]: 16.3 mm; Inhibition zone (diameter) [5]: 22.5 mm; Inhibition zone (diameter) [6]: 17.4 mm
5 | CNC1C(O)CC(N)C(OC2OC(C(C)N)CCC2N)C1O (stereo not shown) [KA-6606 IX] | 15.2 mm | 15.9 mm |  | 22.9 mm | 16 mm | 16.7 mm | 23.8 mm | 13.7 mm | Insoluble | Insoluble | Easily soluble | Easily soluble | 2-10 pH | 9.4 mm | 
6 | CNC1C(OC)CC(N)C(OC2OC(C(C)N)CCC2N)C1O (stereo not shown) [KA-6606 VII] |  |  |  |  |  |  |  |  | Insoluble | Insoluble | Easily soluble | Easily soluble | 2-10 pH |  | zone of inhibition at 1000 µg/mL (Escherichia coli NIHJ): 17.5 mm; Inhibition zone (diameter) (Proteus inconstans [7]): 9.0 mm; zone of inhibition at 1000 µg/mL [8]: 17.8 mm; zone of inhibition at 1000 µg/mL [9]: 9.3 mm; Inhibition zone (diameter) (Klebsiella pneumoniae): 9.0 mm; zone of inhibition at 1000 µg/mL (Proteus vulgaria): 20.1 mm; zone of inhibition at 1000 µg/mL (Serratia marcescens): 15.1 mm
7 | CNC1C(OC)CC(NC(N)=O)C(OC2OC(C(C)N)CCC2N)C1O (stereo not shown) [KA-6606 XVII] |  |  |  |  |  |  |  |  | Insoluble | Insoluble | Easily soluble | Easily soluble | 2-10 pH |  | zone of inhibition at 10000 µg/mL (Proteus vulgaris OX-107): 16.8 mm; zone of inhibition at 10000 µg/mL [1]: 10.1 mm; zone of inhibition at 10000 µg/mL [3]: 14.2 mm; zone of inhibition at 10000 µg/mL (Serratia marcescens NHL): 13.6 mm; zone of inhibition at 10000 µg/mL [4]: 10.7 mm; zone of inhibition at 10000 µg/mL [5]: 17.3 mm
8 | CNC1C(OC)CC(N)C(OC2OC(CN)=CCC2N)C1O (stereo not shown) [KA-6606 XV] | 16.4 mm | 16.2 mm | 9 mm | 23.3 mm | 18.2 mm | 18.5 mm | 23.1 mm | 18.6 mm | Insoluble | Insoluble | Easily soluble | Easily soluble | 2-10 pH |  | 
9 | CNC1C(O)CC(N)C(OC2OC(CO)C(O)C(O)C2N)C1O (stereo not shown) [KA-6606 XII] |  |  |  |  |  |  |  |  | Insoluble | Insoluble |  | Easily soluble | 2-10 pH |  | zone of inhibition at 10000 µg/mL (Proteus vulgaris OX-107): 9.3 mm; zone of inhibition at 10000 µg/mL [1]: 9.3 mm; zone of inhibition at 10000 µg/mL [3]: 16.8 mm; zone of inhibition at 10000 µg/mL (Serratia marcescens NHL): 9.8 mm; zone of inhibition at 10000 µg/mL [4]: 9.2 mm; zone of inhibition at 10000 µg/mL [5]: 17.7 mm
10 | CNC1C(OC)CC(N)C(OC2OC(C(C)N)=CCC2N)C1O (stereo not shown) [KA-6606 XIII] | 18.5 mm | 14.8 mm | 14.3 mm | 22 mm | 18.5 mm | 18.4 mm | 22.6 mm | 17 mm | Insoluble | Insoluble | Easily soluble | Easily soluble | 2-10 pH |  | 
